Marks after values point to notes of the source that are not given here.

The source of these data is patent US12194019B2, “Compositions and methods for treating pain with wogonin” (BRIGHAM YOUNG UNIVERSITY, priority 2018, dated 2025).

Assay [1] concerns OA mouse model (surgical destabilization of the medial meniscal ligament, DMM). Put plainly: Activity wheel use after DMM surgery, topical wogonin cream (Example 1). Format: in vivo. On the procedure: The use of wogonin for the treatment of osteoarthritic (OA) pain was investigated. Specifically, the benefit of using small doses of wogonin applied topically in a cream with penetration enhancers was investigated. The cream formulation shown in Table 2 was used in this study.
(§1) An OA mouse model was used to determine the efficacy of wogonin treatment. OA-like disease was induced by surgical destabilization of the medial meniscal ligament (DMM) of laboratory mice. Repair of the knee was assessed using the Modified Mankin Score which is widely accepted as the way to objectively compare OA progression by histological evaluation of a knee joint (See Larkin D J et al., Frontiers in physiology. 2013; 4:121 and Mankin H J. The New England journal of medicine. 1974; 291(24):1285-92). The mice were housed in activity wheel cages linked to a computer for activity tracking throughout the duration of the experiment. Twenty-four hours after surgical intervention the following treatments were applied topically to the affected knee: 0.00000142 g wogonin (500 μM wogonin) (n=6); 0.0000000028 g wogonin (10 μM wogonin) (n=6); and 10 μl vehicle (n=6). Treatment was applied every third day for 28 days.
At day 28 this pattern was repeated.

For assay [2], the system named is OA mouse model (DMM). Nature of the assay: Modified Mankin score / histological evaluation of knee joint after DMM surgery (Example 1). Format: in vivo. The protocol: as §1
(§2) While the wheel use data were encouraging, inhibiting inflammation alone and blocking pain, is insufficient to block the progression of OA. At the conclusion of the experiment (day 28) mice were sacrificed, knees collected, fixed and studied for Modified Mankin score and HtrA1 expression as previously reported in Spencer K MS and Jeffrey Z Kartchner W. Journal of Arthritis. 2015; 04(03). HtrA1 is the first in the biomarker cascade that is associated with OA progression.
(§3) Mouse knee OA was induced by surgical destabilization of the medial meniscal ligament (DMM surgery) and mice were treated with 10 μM of wogonin. Controls were DMM plus vehicle. […] Note the fissure and rough articular cartilage surface (see arrows) in the control knee.

A further assay relates to HtrA1. Nature of the assay: HtrA1 immunohistochemical staining in knee joints after DMM surgery (Example 1). To be noted: knees treated with 10 μM wogonin, day 28. The assay is classed as in vivo, mouse.
Source text: as §2, §3

The test system of assay [3] is OA mouse model (DMM). Put plainly: Activity wheel use after DMM surgery, wogonin in DMSO or in cream (Example 2). Format: in vivo. The protocol: (§4) A second experiment using small doses of wogonin applied topically either in DMSO or in a cream with penetration enhancers was conducted. In this study, OA was induced by DMM surgery. Twenty four hours after surgery treatment was applied to the affected knee. The treatments included 0.00000142 g wogonin in 10 μl DMSO (500 μM wogonin) applied to the skin at the location of patellar tendon (n=5); 10 μl DMSO applied to the skin at the location of patellar tendon (n=5); 0.0000000028 g wogonin (10 μl G2 Cream E/10 μM wogonin) to the skin at the location of the patellar tendon (n=5). Treatment was applied every third day for 28 days. Immediately after surgery, mice were placed in an activity wheel cage in which wheel use was recorded on a computer. […] At day 28 this pattern was repeated.

The subject of assay [4] is OA mouse model (DMM). Put plainly: Biomarker and Mankin scoring of knees (Example 2). Format: in vivo. To be noted: 500 μM (DMSO) vs 10 μM (cream) wogonin. On the procedure:
as §4
Again, below 1 μM and there would be insufficient wogonin to have an effect. Above 500 μM and there would be too much suppression of inflammation and ceramides. TGF-β1 is inhibited and chondrocytes can't return to homeostasis, […].

Assay [5] relates to TGF-β1 gene expression in human chondrocytes (TC28a2). Put plainly: qRTPCR of TGF-β1 gene expression in human chondrocytes. Format: cell-based. The protocol:
Human chondrocytes (TC28a2 Sigma-Aldrich, St. Louis, MO, USA) were cultured in EmbryoMax® DMEM (SLM-120 B Millipore, St. Louis, MO, USA) supplemented with 10% Fetal Calf Serum (F-2442-50 ML Sigma-Aldrich, St. Louis, MO, USA) to 80% confluence. Treatments consisted of: • 1. Untreated plate: Remove old media and replace with 10 mL fresh media. Incubate 4 hours. Remove media, rinse 3× with PBS and collect total RNA according to manufacturer's protocol ([…] ZYMO Research, Irvine, CA, USA). • 2. Treat with 10 μM wogonin (dissolved in DMSO). Remove old media and replace with 10 mL conditioned media containing wogonin. Incubate 4 hours. Remove media, rinse 3× with PBS and collect total RNA according to manufacturer's protocol ([…] ZYMO Research, Irvine, CA, USA). • 3. Treat with 1 ng/mL IL-1β (dissolved in dds water). Remove old media and replace with 10 mL conditioned media containing IL-1β. Incubate 4 hours. Remove media, rinse 3× with PBS and collect total RNA according to manufacturer's protocol ([…] ZYMO Research, Irvine, CA, USA). • 4. Treat with 10 μM wogonin; wait 1 hour and add 1 ng/mL IL-1β, incubate 4 hours. Remove old media and replace with 10 mL conditioned media containing wogonin. Incubate 1 hour. […] Quantitative Real-time Polymerase Chain Reaction (qRTPCR) was performed using the Life Technologies One Step Plus Sequence Detection System and Software (Life Technologies). […]
On the technique in general: Quantitative PCR measures a nucleic acid by following its amplification.

The test system of assay [6] is BBS 3 gene expression in human chondrocytes (TC28a2). Nature of the assay: qRTPCR of BBS 3 gene expression in human chondrocytes. The assay is classed as cell-based. The protocol:
Human chondrocytes (TC28a2 Sigma-Aldrich, St. Louis, MO, USA) were cultured in EmbryoMax® DMEM (SLM-120 B Millipore, St. Louis, MO, USA) supplemented with 10% Fetal Calf Serum (F-2442-50 ML Sigma-Aldrich, St. Louis, MO, USA) to 80% confluence. Treatments consisted of: • 1. Untreated plate: Remove old media and replace with 10 mL fresh media. Incubate 4 hours. Remove media, rinse 3× with PBS and collect total RNA according to manufacturer's protocol ([…] ZYMO Research, Irvine, CA, USA). • 2. Treat with 10 μM wogonin (dissolved in DMSO). Remove old media and replace with 10 mL conditioned media containing wogonin. Incubate 4 hours. Remove media, rinse 3× with PBS and collect total RNA according to manufacturer's protocol ([…] ZYMO Research, Irvine, CA, USA). • 3. Treat with 1 ng/mL IL-1β (dissolved in dds water). Remove old media and replace with 10 mL conditioned media containing IL-1β. Incubate 4 hours. Remove media, rinse 3× with PBS and collect total RNA according to manufacturer's protocol ([…] ZYMO Research, Irvine, CA, USA). • 4. Treat with 10 μM wogonin; wait 1 hour and add 1 ng/mL IL-1β, incubate 4 hours. Remove old media and replace with 10 mL conditioned media containing wogonin. Incubate 1 hour. Add 10 μL 1 ng/mL IL-1β. Pipet media up and down in cell culture dish 3× gently to mix. Incubate 4 hours. Remove media, rinse 3× with PBS and collect total RNA according to manufacturer's protocol ([…] ZYMO Research, Irvine, CA, USA). cDNA was made from total RNA according to manufacturer's protocol (1725038 BIO-RAD, Hercules, CA, USA). Quantitative Real-time Polymerase Chain Reaction (qRTPCR) was performed using the Life Technologies One Step Plus Sequence Detection System and Software (Life Technologies). SYBR-green-based PrimeTime assays (IDT) were used to detect human TGF-β1 and BBS 3.

The subject of another assay is mouse formalin test. To be noted: intraperitoneal injection, 200 mg/kg; cited from earlier work.
The next assay deals with MMP-3. To be noted: intra-articular injection, inflammation initiated by IL-1β; cited from earlier work.

In the case of `COc1c(O)cc(O)c2c(=O)cc(-c3ccccc3)oc12` [Wogonin, 5,7-dihydroxy-8-methoxyflavone], the “Average Wheel Use” value was 12443** in assay [1] (10 μM wogonin cream topical, Day 7); “significantly higher wheel use than control or vehicle alone” in assay [1] (10 μM wogonin cream topical, Day 7, listed as wogonin); 22000*** in assay [1] (10 μM wogonin cream topical, Day 14); “higher activity wheel use than those receiving 500 μM” in assay [1] (10 μM wogonin cream topical, Day 14, listed as wogonin); 19358** in assay [1] (10 μM wogonin cream topical, Day 28); 12608** in assay [1] (500 μM wogonin cream topical to knee every third day, Day 7). For the same compound, the “Average Wheel Use” value in assay [1] (500 μM wogonin cream topical to knee every third day, Day 7, listed as wogonin) is “significantly higher wheel use than control or vehicle alone”; in assay [1] (500 μM wogonin cream topical, Day 14) it was 17910**; in assay [1] (500 μM wogonin cream topical, Day 28) it was 16528*. In the assay on OA mouse model (DMM) [2] (1 μM wogonin applied topically), the “OA as measured by Modified Mankin score” value is given as “sufficient to significantly reduce OA”. Besides, the “Benefit in reducing the progression of OA” value in the assay on OA mouse model (DMM) [2] (10 μM compared to 500 μM wogonin) is recorded as “greater benefit”. In addition, in the assay with OA mouse model (DMM) [2] (10 μM wogonin topical vs DMM plus vehicle, day 28), the “Modified Mankin score of OA” value was “statistically (p>0.05) lower”. For the same compound, the “Effect on inflammation and biomarkers” value in the assay with OA mouse model (DMM) [2] (dosages above 500 μM wogonin) is “too much suppression of inflammation and biomarkers”. Also, the “Effect on OA” value in the assay on OA mouse model (DMM) [2] (dosages below 1 μM wogonin) is given as “insufficient to have an effect”. Also, the “Articular cartilage surface (histology)” value in the assay with OA mouse model (DMM) [2] (knees treated with 10 μM wogonin, day 28) is given as “essentially normal”. Also, the “Expression of HtrA1 (immunohistochemical staining)” value with HtrA1 is on record as “essentially absent”. In addition, the “Average (activity wheel use)” value in the assay on OA mouse model (DMM) [3] (500 μM wogonin in 10 μl DMSO topical, Day 7, listed as Wogonin + DMSO) is 12608*; with OA mouse model (DMM) [3] (500 μM wogonin in 10 μl DMSO topical, Day 7, listed as wogonin in DMSO), “significantly higher wheel use than DMSO only”; with OA mouse model (DMM) [3] (500 μM wogonin in DMSO topical, Day 14, listed as DMSO+wogonin), “no difference”; with OA mouse model (DMM) [3] (500 μM wogonin in DMSO topical, Day 14, listed as Wogonin + DMSO), 15191; in the assay with OA mouse model (DMM) [3] (500 μM wogonin in DMSO topical, Day 28) it was 15492. Besides, the “Biomarker and Mankin scoring of knees” value in the assay on OA mouse model (DMM) [4] is “higher dose of wogonin is beneficial initially but the lower dose remained beneficial throughout the experiment”. Moreover, in [5] (10 μM wogonin pre-treatment 1 hour, then 1 ng/mL IL-1β 4 hours), the “Drop in gene expression of TGF-β1” value was less than 40%. Further, the “Lowering of the wogonin response (BBS 3 gene expression) by IL-1β” value in assay [6] (10 μM wogonin pre-treatment, then 1 ng/mL IL-1β) is given as “almost half”. For the same compound, the “Increase in gene expression of BBS 3” value in [6] (10 μM wogonin, 4 hours) is recorded as 125%. Also, in assay [6] (wogonin, human chondrocytes), the “Increase in BBS 3 expression” value is on record as 1.25 fold. Further, the “Pain symptoms in mouse formalin test” value in the assay on mouse formalin test is “improvement of pain symptoms”. In addition, the “MMP-3 expression in articular cartilage” value in the assay with MMP-3 is recorded as “decreased MMP-3 expression”.
Consider “IL-1β: pro-inflammatory cytokine used at 1 ng/mL to treat human chondrocytes [reference compound]”, for which the “Drop in gene expression of TGF-β1” value in [5] (1 ng/mL IL-1β, 4 hours, vs untreated) was 80%. Also, the “Effect on BBS 3 gene expression” value in assay [6] (1 ng/mL IL-1β alone, 4 hours) was “no effect”.
